Measurements from patent US7579366B2, “Epothilone derivatives and their synthesis and use” (The Scripps Research Institute, priority 1998, dated 2009).

How the values were obtained:
KB-8511 cells = assay: Cell growth inhibition, KB-8511 epidermoid carcinoma cells (P-gp overexpressing); assay type: cell-based; conditions: Homo sapiens
Description: (§1) Stock solutions of the test compound of formula I 10 mM) in DMSO are prepared and stored at −20° C. Human KB-31 and (multidrug-resistant, P-gp 170 overexpressing) KB-8511 epidermoid carcinoma cells are from Dr. M. Baker, Roswell Park Memorial Institute (Buffalo, N.Y., USA) (for description see also Akiyama et al., Somat. Cell. Mol. Genetics 11, 117-126 (1985) und Fojo A., et al., Cancer Res. 45, 3002-3007 (1985)—KB-31 und KB-8511 both are derivatives of the KB-cell line (American Type Culture Collection) and are human epidermoid carcinoma cells. KB-31 cells can be cultivated in mono-layers using calf serum (M.A. Bioproducts), L-glutamine (Flow), penicillin (50 Units/ml) und streptomycin (50 μg/ml (Flow); they then grow with a doubling rate of about 22 hours, and the relative efficiency of plating them out lies at about 60%. […] After washing again, the stain is eluted with 3% HCl and the optical density at 665 nm is measured with a SpectraMax 340 (Molecular Devices, Sunnyvale, Calif.). IC50-values are determined by mathematically fitting the data to curves using the SoftPro2.0 program (Molecular Devices, Sunnyvale, Calif.) and the formula [(OD treated)−(OD start)]/[(OD control)−(OD start)]×100. […]

A549 cells = assay: Cell growth inhibition, A549 lung cells; assay type: cell-based; conditions: Homo sapiens
DU145 cells = assay: Cell growth inhibition, DU145 prostate cells; assay type: cell-based; conditions: Homo sapiens, DU-145
KB-31 cells = assay: Cell growth inhibition, KB-31 epidermoid carcinoma cells; assay type: cell-based; conditions: Homo sapiens, KB 3-1
Description: as §1

PC-3M cells = assay: Cell growth inhibition, PC-3M prostate cells; assay type: cell-based; conditions: Homo sapiens
MCF-7 cells = assay: Cell growth inhibition, MCF-7 breast cells; assay type: cell-based; conditions: Homo sapiens, MCF7
[1] = molecular target: T1, pig brain microtubuli protein (tubulin plus microtubuli-associated proteins) (Sus scrofa, UniProt P02554); assay: Induction of tubulin polymerisation, pig brain microtubuli, compared with 25 μM epothilone B; assay type: biochemical; conditions: 5 μM test compound versus epothilone B at 25 μM (in %)
T1 construct: Microtubuli-protein is obtained from pig brain by two cycles of temperature dependent depolymerisation/polymerisation; from tissue; host or cells: pig brain
T1 sequence (P02554 whole entry): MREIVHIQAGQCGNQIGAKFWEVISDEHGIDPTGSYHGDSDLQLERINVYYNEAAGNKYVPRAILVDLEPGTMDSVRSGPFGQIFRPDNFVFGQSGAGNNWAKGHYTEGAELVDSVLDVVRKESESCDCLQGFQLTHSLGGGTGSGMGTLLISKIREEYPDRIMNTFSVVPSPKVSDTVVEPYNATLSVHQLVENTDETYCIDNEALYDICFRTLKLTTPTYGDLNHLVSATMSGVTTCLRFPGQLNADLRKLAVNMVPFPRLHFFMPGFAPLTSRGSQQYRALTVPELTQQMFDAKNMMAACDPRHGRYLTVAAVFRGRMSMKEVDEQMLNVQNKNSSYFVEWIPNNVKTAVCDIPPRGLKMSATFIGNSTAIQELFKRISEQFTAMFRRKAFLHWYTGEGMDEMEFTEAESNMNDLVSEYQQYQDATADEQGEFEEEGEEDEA
T1 sequence (P02550 whole entry partner): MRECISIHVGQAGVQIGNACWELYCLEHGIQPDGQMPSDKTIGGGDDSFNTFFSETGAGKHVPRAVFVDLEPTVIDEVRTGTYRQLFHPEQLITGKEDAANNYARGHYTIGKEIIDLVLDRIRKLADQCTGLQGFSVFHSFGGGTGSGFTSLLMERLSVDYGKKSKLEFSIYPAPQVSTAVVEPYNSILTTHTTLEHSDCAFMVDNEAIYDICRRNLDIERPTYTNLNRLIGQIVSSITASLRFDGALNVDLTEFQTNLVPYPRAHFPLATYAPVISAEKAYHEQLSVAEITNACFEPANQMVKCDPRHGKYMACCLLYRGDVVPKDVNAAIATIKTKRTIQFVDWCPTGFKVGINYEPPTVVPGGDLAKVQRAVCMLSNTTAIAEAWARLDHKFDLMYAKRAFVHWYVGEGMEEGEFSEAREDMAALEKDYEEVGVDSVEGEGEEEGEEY
Description: Stock solutions of the test compounds are made in DMSO and stored at −20° C. Microtubuli-protein is obtained from pig brain by two cycles of temperature dependent depolymerisation/polymerisation, as described (see Weingarten et al., Biochemistry 1974; 13: 5529-37). Working stock solutions of microtubule protein (meaning tubulin plus microtubuli-associated proteins) are stored at −70° C. The degree of the microtubuli protein polymerisation induced by a test compound is measured essentially as known from the literature (see Lin et al., Cancer Chem. Pharm. 1996; 38:136-140). In short, 5 μl stock solution of the test compound are pre-mixed in the twenty-fold of the desired final concentration with 45 μl of water at room temperature, and the mixture is then placed on ice. […] As indirect measure for the tubulin-polymerisation the protein concentration of the supernatant (which contains the rest of the un-polymerised, soluble microtubuli protein) is determined according to the Lowry method (DC Assay Kit, Bio-Rad Laboratories, Hercules, Calif.), and the optical density (OD) of the color reaction is determined at 750 nm with a spectrometer (SpectraMax 340, Molecular Devices, Sunnyvale, Calif.). […]

MCF-7/ADR cells = assay: Cell growth inhibition, MCF-7/ADR breast cells (multidrug resistant); assay type: cell-based; conditions: Homo sapiens, NCI/ADR-RES
HCT-15 cells = assay: Cell growth inhibition, HCT-15 colon cells; assay type: cell-based; conditions: Homo sapiens
HCT-116 cells = assay: Cell growth inhibition, HCT-116 colon cells; assay type: cell-based; conditions: Homo sapiens
[2] = from C/C(=C\I)[C@@H](O)C/C=C(\CCC[C@H](C)[C@H](O[Si](C)(C)C(C)(C)C)[C@@H](C)C(=O)C(C)(C)[C@H](CC(=O)O)O[Si](C)(C)C(C)(C)C)COC(c1ccccc1)(c1ccccc1)c1ccccc1; ester bond; 2,4,6-trichlorobenzoyl chloride, Et3N, 4-DMAP (Yamaguchi); toluene; 4.66 mM; 75.0 °C; 2.5 h

SMILES	IC50 (KB-8511 cells) [pM]	IC50 (A549 cells) [pM]	IC50 (DU145 cells) [pM]	IC50 (KB-31 cells) [pM]	IC50 (PC-3M cells) [pM]	IC50 (MCF-7 cells) [pM]	Tubulin (%): induction of tubulin polymerisation [1] [%]	IC50 (MCF-7/ADR cells) [pM]	IC50 (HCT-15 cells) [pM]	IC50 (HCT-116 cells) [pM]	ring closure, yield of all isomers [2] [%]
C/C(=C\c1ccc(C)cn1)[C@@H]1C[C@@H]2O[C@]2(C)CCCC(C)[C@H](O)C(C)C(=O)C(C)(C)C(O)CC(=O)O1 (some centres unmarked) [D (Example 1), 5-Methylpyridine Analogue D of Epothilone B]	105	170	252	108	361	114	88.9	853	247	209	
C/C(=C\I)[C@@H]1C/C=C(/COC(c2ccccc2)(c2ccccc2)c2ccccc2)CCC[C@H](C)[C@H](O[Si](C)(C)C(C)(C)C)[C@@H](C)C(=O)C(C)(C)[C@@H](O[Si](C)(C)C(C)(C)C)CC(=O)O1											84
